Two compounds from PubChem BioAssay (NCI) can be followed below.

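Method: 48-hour compound exposure of cells in 96-well plates, five concentrations, linear interpolation of endpoints. At the TGI there is no net growth.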

What all share (test): NCI tumour cell line growth inhibition, 48 h
Test [1] concerns SN12K1 renal.
Test [2] deals with RXF-631 renal.
Test [3] deals with DMS 114 small cell lung.
Test [4] concerns DLD-1 colon.
In test [5] the test system is KM20L2 colon.
Test [6] has as its system SNB-78 CNS.
For test [7], the system named is HOP-18 NSCLC.
Test [8] concerns P388 leukemia.
The subject of test [9] is LXFL 529 NSCLC.
Test [10] concerns M19-MEL melanoma.
Test [11] has as its system DMS 273 small cell lung.
Test [12] has as its system P388/ADR leukemia.
For test [13], the system named is EKVX NSCLC.
Test [14] deals with XF 498 CNS.

With `ClCCN(CC#CCCCC#CCN(CCCl)CCCl)CCCl`, the TGI in [1] turned out to be 25.3 µM; in test [2], 23.8 µM; in test [3], 15.8 µM; in [4] it was 35.7 µM; in [5], 27.7 µM; in test [6], 57.5 µM. For the same compound, the TGI in [7] amounted to 44.5 µM; in test [8], 9.73 µM; in test [9], 28.3 µM; in [10] it was 29.5 µM; in test [11], 16.6 µM; in test [12], 9.09 µM. The TGI in test [13] worked out at 44.8 µM.
For the compound `COC(=O)C12OCC34C(CC5C(C)C6=CC(=O)OC6=CC5(C)C3C(O)C1O)OC(=O)C(OC(C)=O)C24` (centres undefined), the TGI in test [2] worked out at 33.9 µM; in test [3] it was 35.4 µM; in test [4] it was 25.3 µM; in test [5], 33.3 µM; in test [6], 48.7 µM; in test [7], 27.9 µM. For the same compound, the TGI in test [9] turned out to be 31.5 µM; in [10] it was 40.9 µM; in [11], 30.2 µM; in test [14], 25.4 µM; in test [13], 31 µM.
